Data on three compounds can be found in PMC7177633, “Effective Cellular Transport of Ortho-Halogenated Sulfonamide Derivatives of Metformin Is Related to Improved Antiproliferative Activity and Apoptosis Induction in MCF-7 Cells” (International Journal of Molecular Sciences, 2020).

Data set [1] deals with MCF-7 cells. Kind of data set: Uptake in the presence of OCT and MATE inhibitors, MCF-7 cells. The class given is in vitro ADME, human. As to conditions: for uptake in the presence of cimetidine, MCF-7 / uptake in the presence of disopyramide, MCF-7 / uptake in the presence of lopinavir, MCF-7 / uptake in the presence of methenamine, MCF-7: compound and inhibitor 400 and 800 µmol/L, 10 min, 37 °C; for interactions with OCT, PMAT and MATE1 transporters, MCF-7: summary from uptake with inhibitors. Put shortly: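 Cells incubated 10 min at 37 °C in HBSS with metformin sulfonamide derivatives at 400 and 800 μmol/L plus disopyramide, cimetidine, lopinavir or methenamine as OCT/MATE/PMAT inhibitors. Intracellular compound concentration then determined by the previously described protocol.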

In data set [2] the test system is MCF-7 cells. Nature of the data set: Intracellular GSH and GSSG, MCF-7. The class given is cell-based, human. As to the method:
(§1) The quantitative determination of glutathione and glutathione disulfide was performed using the enzymatic recycling method according to the protocol of Rahman. The cells were seeded at a density of 2 × 10^5 per well in a 6-well plate and cultured for 48 h. Then, the cells were treated with tested compounds 1, 4 and 7 at their respective ¼ and ½ IC50 values for MCF-7 and MDA-MB-231 cells. Additionally, controls with pure medium, AAPH (2,2′-Azobis(2-methylpropionamidine) dihydro-chloride, Sigma Aldrich, St. Louis, MO, USA) and ascorbic acid (Polish Chemical Reagents, Poland) were performed. The cells were incubated with compounds for another 24 h, then washed twice with 2 mL of cold, Ca^2+-/Mg^2+-free PBS (Biomed Lublin, Lublin, Poland). The cells were harvested using 1-mL accutase (Sigma Aldrich, St. Louis, MO, USA), and the wells were washed with 1 mL of cold growth medium. The cells were transferred to prechilled 2.0-mL Eppendorf tubes and centrifuged at 1000× g for 5 min at 4 °C. The supernatant was discarded, the pellets were resuspended in 1 mL of cold PBS, the number of cells was determined in each sample and the cellular suspension was centrifuged again. PBS was discarded, and the pellets were stored covered with 30-µL PBS at –70 °C. The following day, the cells were suspended in 0.5 mL of ice-cold extraction buffer (0.1% Triton-X (Polish Chemical Reagents, Gliwice, Poland) and 0.6% sulfosalicylic acid (Sigma Aldrich) in a potassium phosphate buffer with EDTA (Sigma Aldrich)) and sonicated in icy water for 3 min with vortexing every 30 s. The cells were frozen once again at −80 °C, defrosted on ice and frozen once again. Following the second freeze–thaw cycle, the cells were centrifuged at 1500× g for 5 min at 4 °C, and then, immediately, the supernatant was transferred to prechilled Eppendorf tubes. The samples were divided into two parts: one was used to measure GSH, and the other one was derivatized by an addition of 4 µL of 2-vinylpyridine (diluted 1:10 with phosphate buffer) (Sigma Aldrich, St. Louis, MO, USA) to determine the GSSG content.
(§2) GSH measurements included an addition of 20 µL of the tested sample, blank or GSH standard, 120 µL of the mixture of an equal volume of DTNB solution (2 mg dissolved in 3 mL of phosphate buffer, Sigma Aldrich) and glutathione reductase (10 U in 3 mL of phosphate buffer, Sigma Aldrich, St. Louis, MO, USA) and 30 s of incubation to allow the conversion of GSSG to GSH. The final step included the addition of 60 µL of β-NADPH (2 mg dissolved in 3 mL of phosphate buffer, Sigma Aldrich). The absorbance was read immediately at 415 nm in a microplate reader (Bio-Rad), and the measurements were taken every 30 s for 2 min (6 readings in total). The amount of GSH was calculated on the basis of the calibration curve prepared using GSH (Sigma Aldrich, St. Louis, MO, USA) at concentrations ranging from 0.040 to 2.6 nmol/mL.
(§3) The quantification of GSSG in the test samples was performed according to the same procedure as GSH. The samples treated with 2-VP were incubated for one hour at room temperature, and then, 20 µL of the tested sample was analyzed using the same reagents which were applied in the GSH measurements. The amount of GSSG was calculated on the basis of the calibration curve, prepared using GSSG (Sigma Aldrich) at concentrations of 0.040–2.6 nmol/mL. The results are presented as mean ± SD, n = 6–8 and expressed as nmol per […].

The test system of a further data set is MDA-MB-231 cells. Kind of data set: Intracellular GSH and GSSG, MDA-MB-231. The class given is cell-based, human. As to the method: as §1, §2, §3
The test system of the next data set is OCTs. Nature of the data set: Inhibition of [14C]choline uptake in MDA-MB-231 cells (competitive inhibition assay). It counts as cell-based, human. The note with it: mean ± SD (n = 3). Summed up: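 [14C]choline uptake was measured in MDA-MB-231 or MCF-7 monolayers in HBSS with 25 mM HEPES, pH 7.4. After ice-cold washes the cells were lysed in 0.1 M NaOH and radioactivity was counted by liquid scintillation, with at least three replicates per passage.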

As a reminder, the IC50 is the concentration needed to halve the response being measured. Higher therefore signals weaker potency. Take `CN(C)C(=N)N=C(N)NS(=O)(=O)c1ccccc1Cl` [Compound 1]: in the data set on MCF-7 cells [1], the “uptake in the presence of cimetidine, MCF-7” value (“uptake … of cimetidine, MCF-7” for short) was “significantly decreased”; the “uptake in the presence of disopyramide, MCF-7” value is “Lower uptake, however, not statistically significant”; the “uptake in the presence of lopinavir, MCF-7” value (from here on “uptake … of lopinavir, MCF-7”) is “significantly higher uptake”; the “uptake in the presence of methenamine, MCF-7” value was “significantly decreased”. Further, in the data set with MCF-7 cells [1], the “interactions with OCT, PMAT and MATE1 transporters, MCF-7” value (“interactions with OCT” for short) is “OCT1, OCT3, PMAT, MATE1”. Moreover, in the data set with MCF-7 cells [2] (MCF-7, 1/2 × IC50, 24 h), the GSH was found to be 167.5 ± 5.1 nmol/1 mln Cells, the “GSH:GSSG Ratio” value amounted to 22.6 and the GSSG is 7.4 ± 1.8 nmol/1 mln Cells. In addition, in the data set on MCF-7 cells [2] (MCF-7, 1/4 × IC50, 24 h), the GSH was determined as 183.1 ± 8.9 nmol/1 mln Cells, the “GSH:GSSG Ratio” value came out at 20.1 and the GSSG amounted to 9.1 ± 3.9 nmol/1 mln Cells. Also, in the data set on MDA-MB-231 cells (MDA-MB-231, 1/2 × IC50, 24 h), the GSH came to 242.0 ± 47.0 nmol/1 mln Cells, the “GSH:GSSG Ratio” value is given as 12.1 and the GSSG was determined as 19.9 ± 2.0 nmol/1 mln Cells. Moreover, in the data set on MDA-MB-231 cells (MDA-MB-231, 1/4 × IC50, 24 h), the GSH is on record as 238.0 ± 4.3 nmol/1 mln Cells, the “GSH:GSSG Ratio” value came to 12.2 and the GSSG amounted to 19.5 ± 2.2 nmol/1 mln Cells. In the data set with OCTs, this compound showed a concentration for half-maximal inhibition (IC50) of 2.135 ± 0.014 mM.

As for `CN(C)C(=N)N=C(N)NS(=O)(=O)c1ccccc1Br` [Compound 4], in the data set on MCF-7 cells [1], the “uptake … of cimetidine, MCF-7” value is “did not change”; the “uptake in the presence of disopyramide, MCF-7” value is recorded as “increased the uptake”; the “uptake … of lopinavir, MCF-7” value is reported as “increased the uptake”; the “uptake in the presence of methenamine, MCF-7” value is “did not change”. The “interactions with OCT” value in the data set on MCF-7 cells [1] is listed as “OCT1, PMAT”. For the same compound, in the data set with MCF-7 cells [2] (MCF-7, 1/2 × IC50, 24 h), the GSH is 148.5 ± 4.8 nmol/1 mln Cells, the “GSH:GSSG Ratio” value is recorded as 24.0 and the GSSG worked out at 6.2 ± 0.7 nmol/1 mln Cells. For the same compound, in the data set with MCF-7 cells [2] (MCF-7, 1/4 × IC50, 24 h), the GSH came out at 165.4 ± 9.6 nmol/1 mln Cells, the “GSH:GSSG Ratio” value amounted to 19.2 and the GSSG was found to be 8.6 ± 0.7 nmol/1 mln Cells. In the data set with MDA-MB-231 cells (MDA-MB-231, 1/2 × IC50, 24 h), the GSH was determined as 242.1 ± 13.7 nmol/1 mln Cells, the “GSH:GSSG Ratio” value is 12.3 and the GSSG was 19.6 ± 1.4 nmol/1 mln Cells. Moreover, in the data set with MDA-MB-231 cells (MDA-MB-231, 1/4 × IC50, 24 h), the GSH amounted to 250.2 ± 12.1 nmol/1 mln Cells, the “GSH:GSSG Ratio” value came out at 12.5 and the GSSG is recorded as 19.9 ± 2.3 nmol/1 mln Cells. For the same compound, the half-maximal inhibitory concentration (IC50) with OCTs was determined as 0.92 ± 0.013 mM.

For `CN(C)C(=N)N=C(N)NS(=O)(=O)c1ccccc1F` [Compound 7], in the data set with MCF-7 cells [1], the “uptake … of cimetidine, MCF-7” value is listed as “decrease in uptake”; the “uptake … of lopinavir, MCF-7” value was “increase in its uptake”; the “interactions with OCT” value is recorded as “OCT3, PMAT”. For the same compound, in the data set with MCF-7 cells [2] (MCF-7, 1/2 × IC50, 24 h), the GSH was determined as 169.0 ± 6.0 nmol/1 mln Cells, the “GSH:GSSG Ratio” value is 15.9 and the GSSG was determined as 10.6 ± 0.4 nmol/1 mln Cells. Besides, in the data set on MCF-7 cells [2] (MCF-7, 1/4 × IC50, 24 h), the GSH is 166.8 ± 12.8 nmol/1 mln Cells, the “GSH:GSSG Ratio” value is 21.2 and the GSSG was found to be 7.9 ± 0.9 nmol/1 mln Cells. In the data set on MDA-MB-231 cells (MDA-MB-231, 1/2 × IC50, 24 h), the GSH is 248.7 ± 13.3 nmol/1 mln Cells, the “GSH:GSSG Ratio” value was determined as 11.3 and the GSSG is 21.9 ± 2.9 nmol/1 mln Cells. For the same compound, in the data set with MDA-MB-231 cells (MDA-MB-231, 1/4 × IC50, 24 h), the GSH is 265.0 ± 15.9 nmol/1 mln Cells, the “GSH:GSSG Ratio” value stood at 11.8 and the GSSG came to 22.5 ± 0.9 nmol/1 mln Cells. In addition, in the data set on OCTs, the half-inhibitory concentration (IC50) amounted to 5.149 ± 0.022 mM.
